How the values were obtained:
[1] = target: T1, Alpha-1A adrenergic receptor (Homo sapiens, UniProt P35348); assay: Evaluated for the ability to displace [125I]- HEAT from human cloned Alpha-1A adrenergic receptor stably expressed in CHO cells.; assay type: cell-based
T1 sequence (P35348 whole entry): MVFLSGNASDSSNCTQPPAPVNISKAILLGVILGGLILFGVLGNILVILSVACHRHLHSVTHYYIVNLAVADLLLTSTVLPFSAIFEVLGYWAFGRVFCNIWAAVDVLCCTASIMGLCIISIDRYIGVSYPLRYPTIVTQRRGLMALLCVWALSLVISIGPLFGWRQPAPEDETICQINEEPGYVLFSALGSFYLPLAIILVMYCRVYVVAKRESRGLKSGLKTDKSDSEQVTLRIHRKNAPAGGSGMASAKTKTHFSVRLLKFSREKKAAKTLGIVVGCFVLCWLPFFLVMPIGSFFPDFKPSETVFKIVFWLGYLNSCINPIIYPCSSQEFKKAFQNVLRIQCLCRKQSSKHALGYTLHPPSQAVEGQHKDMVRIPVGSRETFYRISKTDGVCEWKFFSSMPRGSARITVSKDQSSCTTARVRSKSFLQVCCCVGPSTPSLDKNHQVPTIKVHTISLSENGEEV

[2] = t1/2 in rat; assay type: ADME, organism-based; settings: in vivo
[3] = target: T2, Alpha-1B adrenergic receptor (Homo sapiens, UniProt P35368); assay: Evaluated for the ability to displace [125I]- HEAT from human cloned Alpha-1B adrenergic receptor stably expressed in LM cells.; assay type: cell-based
T2 sequence (P35368 whole entry): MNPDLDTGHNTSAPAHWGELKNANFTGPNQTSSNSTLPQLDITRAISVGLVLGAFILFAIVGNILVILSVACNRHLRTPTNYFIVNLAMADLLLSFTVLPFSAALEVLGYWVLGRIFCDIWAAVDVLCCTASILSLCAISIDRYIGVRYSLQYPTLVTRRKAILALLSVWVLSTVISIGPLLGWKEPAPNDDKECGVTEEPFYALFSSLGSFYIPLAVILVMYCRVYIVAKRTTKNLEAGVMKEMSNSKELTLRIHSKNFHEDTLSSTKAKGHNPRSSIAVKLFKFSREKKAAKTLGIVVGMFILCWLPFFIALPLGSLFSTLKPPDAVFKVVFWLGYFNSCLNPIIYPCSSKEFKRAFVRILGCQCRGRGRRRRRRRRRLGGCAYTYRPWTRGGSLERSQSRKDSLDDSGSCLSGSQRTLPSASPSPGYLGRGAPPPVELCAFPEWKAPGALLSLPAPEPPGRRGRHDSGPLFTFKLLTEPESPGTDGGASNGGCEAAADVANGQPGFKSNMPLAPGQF

Rattus norvegicus [4] = species on record: Rattus norvegicus; assay: Evaluated for the inhibition of A61603-induced prostate contraction in rat; assay type: functional, Prostate gland
Rattus norvegicus [5] = species on record: Rattus norvegicus; assay: Duration of action with repeated challenges of A61603 agonist in rat; assay type: functional; further: test concentration or dose not given here
[6] = Bioavailability in rat; assay type: ADME, organism-based; settings: in vivo
[7] = target: T3, Alpha-1D adrenergic receptor (Homo sapiens, UniProt P25100); assay: Evaluated for the ability to displace [125I]- HEAT from human cloned Alpha-1D adrenergic receptor stably expressed in HEK cells.; assay type: cell-based, HEK293
T3 sequence (P25100 whole entry): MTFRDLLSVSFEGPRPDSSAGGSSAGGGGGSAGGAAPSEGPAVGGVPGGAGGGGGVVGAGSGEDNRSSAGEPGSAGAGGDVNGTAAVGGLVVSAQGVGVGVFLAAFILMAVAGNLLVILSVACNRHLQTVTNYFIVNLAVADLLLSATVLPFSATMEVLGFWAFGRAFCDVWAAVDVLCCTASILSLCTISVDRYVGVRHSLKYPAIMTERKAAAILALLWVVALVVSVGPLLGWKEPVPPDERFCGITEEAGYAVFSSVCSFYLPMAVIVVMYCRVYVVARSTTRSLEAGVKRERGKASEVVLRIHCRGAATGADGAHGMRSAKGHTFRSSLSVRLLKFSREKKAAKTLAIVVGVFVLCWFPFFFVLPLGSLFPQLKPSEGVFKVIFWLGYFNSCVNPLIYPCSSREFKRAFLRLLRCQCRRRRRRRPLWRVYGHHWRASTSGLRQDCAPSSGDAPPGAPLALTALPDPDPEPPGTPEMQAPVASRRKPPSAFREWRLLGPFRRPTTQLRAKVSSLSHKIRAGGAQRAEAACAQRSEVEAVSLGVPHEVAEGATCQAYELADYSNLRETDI

[8] = target: T3, Alpha-1D adrenergic receptor; assay: Ability to displace [125I]- HEAT from human cloned Alpha-1D adrenergic receptor stably expressed in HEK cells.; assay type: cell-based, HEK293
[9] = target: T2, Alpha-1B adrenergic receptor; assay: Ability to displace [125I]- HEAT from human cloned Alpha-1B adrenergic receptor stably expressed in LM cells.; assay type: cell-based
[10] = target: T1, Alpha-1A adrenergic receptor; assay: Ability to displace [125I]- HEAT from human cloned Alpha-1A adrenergic receptor stably expressed in CHO cells.; assay type: cell-based
Canis familiaris [11] = species on record: Canis familiaris; assay: Compound was evaluated for the inhibition of phenylephrine-induced contraction in dog.; assay type: functional, Canis lupus familiaris
Canis familiaris [12] = species on record: Canis familiaris; assay: Dose effecting a 20 mmHg change in diastolic blood pressure in dog.; assay type: functional, Canis lupus familiaris, Artery

Row | Compound | Ki [1] [nM] | half-life [2] [min] | Ki [3] [nM] | AD50 (Rattus norvegicus [4]) [µg/kg] | Duration (Rattus norvegicus [5]) [h] | bioavailability [6] [%] | Ki [7] [nM] | Ki [8] [nM] | Ki [9] [nM] | Ki [10] [nM] | AD50 (Canis familiaris [11]) [µg/kg] | DBP-20 (Canis familiaris [12]) [µg/kg]
1 | N#CC1(c2ccc(F)cc2)CCN(CCCNC(=O)C2=CNC(=O)N[C@@H]2c2ccc(F)c(F)c2)CC1 | 0.17 | 140 | 140 | 7 | 0.75 | 0 | 810 | – | – | – | – | –
2 | CN1C=C(C(=O)NCCCN2CCC(C#N)(c3ccc(F)cc3C#N)CC2)[C@@H](c2ccc(F)c(F)c2)NC1=O | 0.18 | < 60 | 440 | 4 | 3.5 | 0 | 630 | – | – | – | – | –
3 | CC1=C(C(=O)NCCCN2CCC(c3ccccn3)CC2)[C@@H](c2ccc(F)c(F)c2)NC(=O)N1 | 2.6 | 42 | > 2000 | 2.3 | 0.5 | 0 | > 5000 | – | – | – | – | –
4 | COCC1=C(C(=O)NCCCN2CCC(c3ccccc3C#N)CC2)[C@@H](c2ccc(F)c(F)c2)NC(=O)N1 | 0.42 | 108 | 285 | 7 | 0.6 | < 6 | 285 | – | – | – | – | –
5 | CC1=C(C(=O)NCCCN2CCC(c3ccc(F)cc3)CC2)[C@H](c2ccc(F)c(F)c2)NC(=O)N1C | 20 | – | 110 | – | – | – | – | 600 | – | – | – | –
6 | COCC1=C(C(=O)NCCCN2CCC(c3ccc(F)cc3C#N)CC2)[C@@H](c2ccc(F)c(F)c2)NC(=O)N1 | 0.14 | 175 | 35 | 2.8 | 1.5 | < 6 | 260 | – | – | – | – | –
7 | O=C1NC=C(C(=O)NCCCN2CCC(O)(c3ccc(F)cc3)CC2)[C@@H](c2ccc(F)c(F)c2)N1 | 0.91 | 37 | 160 | 1.2 | 0.5 | 0 | 880 | – | – | – | – | –
8 | CN1C=C(C(=O)NCCCN2CCC(C#N)(c3ccc(F)cc3)CC2)[C@H](c2ccc(F)c(F)c2)NC1=O | – | 72 | – | 145 | – | 8 | – | 710 | 320 | 2.3 | – | –
9 | CC1=C(C(=O)NCCCN2CCC(C#N)(c3ccc(F)cc3)CC2)[C@@H](c2ccc(F)c(F)c2)NC(=O)N1C | 0.39 | 45 | 1100 | 21 | 1.5 | < 6 | 2200 | – | – | – | – | –
10 | CN1C=C(C(=O)NCCCN2CCC(c3ccc(F)cc3C#N)CC2)[C@@H](c2ccc(F)c(F)c2)NC1=O | 0.068 | 48 | 7.9 | 5 | 4 | 0 | 69 | – | – | – | – | –
11 | O=C1NC(C(F)(F)F)=C(C(=O)NCCCN2CCC(c3ccc(F)cc3)CC2)[C@@H](c2ccc(F)c(F)c2)N1 | – | – | 270 | – | – | – | 1200 | – | – | 19 | – | –
12 | O=C1NC=C(C(=O)NCCCN2CCC(c3ccccn3)CC2)[C@@H](c2ccc(F)c(F)c2)N1 | 2.5 | – | 1850 | – | – | – | > 3000 | – | – | – | – | –
13 | CC1=C(C(=O)NCCCN2CCC(c3ccc(F)cc3)CC2)[C@@H](c2ccc(F)c(F)c2)N(C)C(=O)N1C | – | 138 | – | 9 | 1 | 17 | – | 200 | 20 | 0.18 | – | –
14 | CC1=C(C(=O)NCCCN2CCC(c3ccc(F)cc3)CC2)[C@@H](c2ccc(F)c(F)c2)NC(=O)N1C | – | 72 | – | 20 | 2.5 | < 6 | – | 590 | 120 | 0.18 | – | –
15 | CC(=O)N1C(=O)N(C)C(C)=C(C(=O)NCCCN2CCC(c3ccc(F)cc3)CC2)[C@H]1c1ccc(F)c(F)c1 | 2.2 | – | 33 | – | – | – | 230 | – | – | – | – | –
16 | CC1=C(C(=O)NCCCN2CCC(c3ccc(F)cc3)CC2)[C@@H](c2ccc(F)c(F)c2)N(C)C(=O)N1 | 0.14 | – | 4.8 | – | – | – | 120 | – | – | – | – | –
17 | N#Cc1ccccc1C1CCN(CCCNC(=O)C2=CNC(=O)N[C@@H]2c2ccc(F)c(F)c2)CC1 | 0.13 | 43 | 290 | 1.5 | 0.5 | 0 | 160 | – | – | – | – | –
18 | N#Cc1ccccc1C1(C#N)CCN(CCCNC(=O)C2=CNC(=O)N[C@@H]2c2ccc(F)c(F)c2)CC1 | 0.16 | 45 | 970 | 3 | 1 | 0 | 2400 | – | – | – | – | –
19 | O=C1NC(C(F)(F)F)=C(C(=O)NCCCN2CCC(c3ccccn3)CC2)[C@@H](c2ccc(F)c(F)c2)N1 | 500 | – | > 2000 | – | – | – | > 5000 | – | – | – | – | –
20 | CC1=C(C(=O)NCCCN2CCC(C#N)(c3ccc(F)cc3C#N)CC2)[C@@H](c2ccc(F)c(F)c2)NC(=O)N1C | 0.6 | 24 | > 2000 | 5 | 1 | 0 | > 4000 | – | – | – | – | –
21 | CN1C=C(C(=O)NCCCN2CCC(C#N)(c3ccc(F)cc3)CC2)[C@@H](c2ccc(F)c(F)c2)NC1=O | – | 66 | – | 14 | 4 | < 6 | – | 240 | 53 | 0.12 | – | –
22 | CC1=C(C(=O)NCCCN2CCC(c3ccc(F)cc3C#N)CC2)[C@@H](c2ccc(F)c(F)c2)NC(=O)N1 | 0.17 | 25 | 87 | 1.5 | 1.5 | 0 | 215 | – | – | – | 5 | >300
23 | N#Cc1ccccc1C1CCN(CCCNC(=O)C2=C(C(F)(F)F)NC(=O)N[C@@H]2c2ccc(F)c(F)c2)CC1 | 20 | – | 700 | – | – | – | 220 | – | – | – | – | –
24 | COC(=O)N1C(=O)N(C)C(C)=C(C(=O)NCCCN2CCC(c3ccc(F)cc3)CC2)[C@H]1c1ccc(F)c(F)c1 | 0.75 | – | 25 | – | – | – | 170 | – | – | – | – | –
25 | CC1=C(C(=O)NCCCN2CCC(c3ccc(F)cc3)CC2)[C@H](c2ccc(F)c(F)c2)N(C)C(=O)N1C | – | – | – | – | – | – | – | 410 | 85 | 11 | – | –
26 | CN1C=C(C(=O)NCCCN2CCC(C#N)(c3ccc(F)cc3C#N)CC2)[C@@H](c2ccc(F)c(F)c2)N(C)C1=O | 0.3 | 15 | 72 | 13 | 3 | < 6 | 250 | – | – | – | – | –
27 | N#Cc1cc(F)ccc1C1CCN(CCCNC(=O)C2=CNC(=O)N[C@@H]2c2ccc(F)c(F)c2)CC1 | 0.07 | 174 | 26 | 1.8 | 2 | 0 | 62 | – | – | – | – | –
28 | N#Cc1cc(F)ccc1C1CCN(CCCNC(=O)C2=C(C(F)(F)F)NC(=O)N[C@@H]2c2ccc(F)c(F)c2)CC1 | 4.2 | – | 200 | – | – | – | 270 | – | – | – | – | –
